SMILES strings stand for the structures. Calls of active or inactive are those of the source. No cut-off for these calls is given here. Some results are limits rather than exact numbers.

Data set [1] has as its target Histone-lysine N-methyltransferase, H3 lysine-79 specific (Homo sapiens) (UniProt Q8TEK3). As to the kind of experiment: Inhibition of DOT1L (unknown origin) using [methyl-3H]SAM and biotinylated nucleosome PRC2 and H3K27Me3 activator peptide up to 80 uM by [3H]methyl group incorporation assay.
Data set [2] deals with Histone-lysine N-methyltransferase EZH2 (Homo sapiens) (UniProt Q15910). Nature of the data set: Inhibition of EZH2 (unknown origin) using [methyl-3H]SAM and biotinylated nucleosome PRC2 and H3K27Me3 activator peptide up to 80 uM by [3H]methyl group incorporation assay.
Data set [3] has as its target DNA (cytosine-5)-methyltransferase 1 (Homo sapiens) (UniProt P26358). As to the kind of experiment: Inhibition of human DNMT1 using [methyl-3H]SAM and biotinylated hemimethylated DNA duplex at 100 uM by [3H]methyl group incorporation assay.
The target in data set [4] is T1, DNA (cytosine-5)-methyltransferase 3A (Homo sapiens, UniProt Q9Y6K1). As to the kind of experiment: Inhibition of human DNMT3A catalytic domain (623 to 912 amino acids) at 10 uM after 1 hr by fluorescence assay.
Data set [5] deals with T1, DNA (cytosine-5)-methyltransferase 3A. As to the kind of experiment: Inhibition of human DNMT3A catalytic domain (623 to 912 amino acids) at 100 uM after 1 hr by fluorescence assay.
Data set [6] concerns the target DNA (cytosine-5)-methyltransferase 1 (Homo sapiens) (UniProt P26358). Nature of the data set: Inhibition of human DNMT1 using [methyl-3H]SAM and biotinylated hemimethylated DNA duplex at 50 to 200 uM by [3H]methyl group incorporation assay.
The test system of data set [7] is MDA-MB-231. Nature of the data set: Toxicity against human MDA-MB-231 cells. It counts as cell-based.
In data set [8] the target is T1, DNA (cytosine-5)-methyltransferase 3A. Nature of the data set: Inhibition of human DNMT3A catalytic domain (623 to 912 amino acids) after 1 hr by fluorescence assay.
Data set [9] relates to MDA-MB-231. As to the kind of experiment: Inhibition of DNMT in human MDA-MB-231 cells assessed as reduction in methylation level at 200 uM by luminometric methylation assay. In kind it is cell-based.
The subject of data set [10] is MDA-MB-231. As to the kind of experiment: Inhibition of DNMT in human MDA-MB-231 cells assessed as reduction in methylation level at 100 uM by luminometric methylation assay. It counts as cell-based.
Data set [11] relates to MDA-MB-231. Nature of the data set: Inhibition of DNMT in human MDA-MB-231 cells assessed as reduction in methylation level at 1 uM by luminometric methylation assay. It counts as cell-based.

DNA (cytosine-5)-methyltransferase 1 (Homo sapiens), sequence (P26358 whole entry, the tested form may be a part): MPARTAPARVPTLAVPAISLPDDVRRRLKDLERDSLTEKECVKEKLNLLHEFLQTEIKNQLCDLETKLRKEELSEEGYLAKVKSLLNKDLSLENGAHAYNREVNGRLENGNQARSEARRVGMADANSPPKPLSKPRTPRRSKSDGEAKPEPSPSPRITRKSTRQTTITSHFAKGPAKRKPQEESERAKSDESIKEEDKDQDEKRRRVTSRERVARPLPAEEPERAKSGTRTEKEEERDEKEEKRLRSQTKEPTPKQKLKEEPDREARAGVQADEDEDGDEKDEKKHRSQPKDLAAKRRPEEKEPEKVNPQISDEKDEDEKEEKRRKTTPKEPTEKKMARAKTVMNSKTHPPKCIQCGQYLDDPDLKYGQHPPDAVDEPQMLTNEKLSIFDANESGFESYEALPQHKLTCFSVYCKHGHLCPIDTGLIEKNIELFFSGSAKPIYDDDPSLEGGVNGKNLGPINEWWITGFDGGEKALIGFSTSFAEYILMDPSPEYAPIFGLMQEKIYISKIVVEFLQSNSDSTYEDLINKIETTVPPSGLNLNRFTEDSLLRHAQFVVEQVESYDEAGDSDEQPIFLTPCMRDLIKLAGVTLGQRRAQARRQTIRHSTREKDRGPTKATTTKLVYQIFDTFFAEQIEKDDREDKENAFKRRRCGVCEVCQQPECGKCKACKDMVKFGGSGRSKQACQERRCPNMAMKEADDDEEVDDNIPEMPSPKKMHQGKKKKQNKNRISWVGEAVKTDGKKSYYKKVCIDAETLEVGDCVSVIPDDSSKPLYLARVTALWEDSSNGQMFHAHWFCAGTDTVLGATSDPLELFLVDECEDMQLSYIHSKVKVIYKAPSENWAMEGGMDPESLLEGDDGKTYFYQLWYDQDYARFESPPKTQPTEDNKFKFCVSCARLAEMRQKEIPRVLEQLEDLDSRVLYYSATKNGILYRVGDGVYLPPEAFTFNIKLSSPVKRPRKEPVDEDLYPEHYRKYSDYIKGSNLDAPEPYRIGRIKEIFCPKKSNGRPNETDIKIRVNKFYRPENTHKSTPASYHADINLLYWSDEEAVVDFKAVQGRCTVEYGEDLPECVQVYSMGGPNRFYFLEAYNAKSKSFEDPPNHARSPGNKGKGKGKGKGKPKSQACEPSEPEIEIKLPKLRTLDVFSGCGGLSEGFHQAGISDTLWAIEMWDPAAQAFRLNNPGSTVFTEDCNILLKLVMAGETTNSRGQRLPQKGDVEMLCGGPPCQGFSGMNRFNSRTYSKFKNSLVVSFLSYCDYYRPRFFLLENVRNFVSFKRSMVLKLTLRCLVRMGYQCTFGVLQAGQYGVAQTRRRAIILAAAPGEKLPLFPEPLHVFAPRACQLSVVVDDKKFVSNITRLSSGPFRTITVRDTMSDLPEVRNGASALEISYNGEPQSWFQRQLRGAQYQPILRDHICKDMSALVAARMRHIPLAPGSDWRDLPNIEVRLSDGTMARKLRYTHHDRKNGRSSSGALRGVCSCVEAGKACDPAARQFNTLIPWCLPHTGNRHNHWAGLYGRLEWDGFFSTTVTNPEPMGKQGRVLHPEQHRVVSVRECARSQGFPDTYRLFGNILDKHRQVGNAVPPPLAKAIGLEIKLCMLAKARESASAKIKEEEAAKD
Histone-lysine N-methyltransferase EZH2 (Homo sapiens), sequence (Q15910 whole entry, looked up): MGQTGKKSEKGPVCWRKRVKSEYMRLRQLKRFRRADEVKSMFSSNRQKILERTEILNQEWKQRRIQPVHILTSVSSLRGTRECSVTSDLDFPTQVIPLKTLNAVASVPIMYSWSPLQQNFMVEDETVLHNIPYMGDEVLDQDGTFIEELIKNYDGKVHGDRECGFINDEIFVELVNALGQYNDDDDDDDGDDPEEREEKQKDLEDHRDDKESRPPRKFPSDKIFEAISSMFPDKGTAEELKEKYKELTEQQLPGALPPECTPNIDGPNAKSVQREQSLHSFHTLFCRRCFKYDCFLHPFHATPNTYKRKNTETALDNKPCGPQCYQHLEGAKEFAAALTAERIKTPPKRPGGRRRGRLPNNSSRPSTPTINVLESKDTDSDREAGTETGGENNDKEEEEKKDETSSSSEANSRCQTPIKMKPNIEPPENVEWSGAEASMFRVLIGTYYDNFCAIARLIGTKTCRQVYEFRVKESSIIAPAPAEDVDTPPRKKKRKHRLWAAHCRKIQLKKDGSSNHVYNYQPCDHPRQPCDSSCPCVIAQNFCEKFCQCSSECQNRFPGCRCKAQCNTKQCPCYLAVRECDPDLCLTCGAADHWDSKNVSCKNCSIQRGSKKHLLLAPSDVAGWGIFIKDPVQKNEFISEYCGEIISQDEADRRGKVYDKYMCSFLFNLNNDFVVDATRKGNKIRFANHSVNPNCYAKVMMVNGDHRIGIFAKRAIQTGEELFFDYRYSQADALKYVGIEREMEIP
Histone-lysine N-methyltransferase, H3 lysine-79 specific (Homo sapiens), sequence (Q8TEK3 whole entry, looked up): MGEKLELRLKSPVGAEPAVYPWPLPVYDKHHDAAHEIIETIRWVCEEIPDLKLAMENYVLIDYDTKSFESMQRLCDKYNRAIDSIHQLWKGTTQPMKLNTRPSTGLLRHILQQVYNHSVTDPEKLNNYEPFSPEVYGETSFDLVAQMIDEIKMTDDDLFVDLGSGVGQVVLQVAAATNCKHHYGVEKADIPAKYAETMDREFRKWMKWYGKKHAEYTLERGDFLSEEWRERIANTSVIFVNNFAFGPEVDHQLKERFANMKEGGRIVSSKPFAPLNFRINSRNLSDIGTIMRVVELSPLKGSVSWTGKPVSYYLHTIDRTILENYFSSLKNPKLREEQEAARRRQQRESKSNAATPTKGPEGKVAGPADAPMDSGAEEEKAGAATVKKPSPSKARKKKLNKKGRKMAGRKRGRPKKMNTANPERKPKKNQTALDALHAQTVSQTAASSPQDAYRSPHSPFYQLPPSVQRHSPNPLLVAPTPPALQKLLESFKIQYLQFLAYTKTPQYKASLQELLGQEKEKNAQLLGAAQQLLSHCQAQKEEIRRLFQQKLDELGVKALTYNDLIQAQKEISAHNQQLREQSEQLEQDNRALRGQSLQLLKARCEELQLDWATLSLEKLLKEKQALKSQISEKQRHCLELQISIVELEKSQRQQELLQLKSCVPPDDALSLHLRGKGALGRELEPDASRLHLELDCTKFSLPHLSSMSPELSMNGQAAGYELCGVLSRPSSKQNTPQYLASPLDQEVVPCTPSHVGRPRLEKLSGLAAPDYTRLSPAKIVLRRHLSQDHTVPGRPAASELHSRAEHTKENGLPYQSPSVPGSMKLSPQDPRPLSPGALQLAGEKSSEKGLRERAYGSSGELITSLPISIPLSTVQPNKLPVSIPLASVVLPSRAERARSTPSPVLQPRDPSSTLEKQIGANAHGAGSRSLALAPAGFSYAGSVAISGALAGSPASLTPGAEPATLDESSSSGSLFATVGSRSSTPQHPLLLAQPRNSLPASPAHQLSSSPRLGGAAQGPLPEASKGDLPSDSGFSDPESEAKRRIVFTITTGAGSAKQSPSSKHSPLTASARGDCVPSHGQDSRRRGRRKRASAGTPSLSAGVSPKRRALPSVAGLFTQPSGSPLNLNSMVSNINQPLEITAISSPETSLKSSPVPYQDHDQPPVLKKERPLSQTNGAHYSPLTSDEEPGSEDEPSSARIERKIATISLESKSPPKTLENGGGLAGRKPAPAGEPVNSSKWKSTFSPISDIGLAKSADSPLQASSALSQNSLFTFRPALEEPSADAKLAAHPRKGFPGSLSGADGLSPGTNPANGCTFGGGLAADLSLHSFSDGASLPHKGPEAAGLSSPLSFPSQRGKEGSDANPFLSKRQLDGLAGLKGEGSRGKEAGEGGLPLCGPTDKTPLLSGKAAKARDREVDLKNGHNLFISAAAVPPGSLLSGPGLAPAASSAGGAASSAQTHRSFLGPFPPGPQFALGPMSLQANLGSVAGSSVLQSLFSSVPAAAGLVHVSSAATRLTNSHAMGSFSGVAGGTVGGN
T1 sequence (Q9Y6K1 whole entry, looked up, the tested form may be a part): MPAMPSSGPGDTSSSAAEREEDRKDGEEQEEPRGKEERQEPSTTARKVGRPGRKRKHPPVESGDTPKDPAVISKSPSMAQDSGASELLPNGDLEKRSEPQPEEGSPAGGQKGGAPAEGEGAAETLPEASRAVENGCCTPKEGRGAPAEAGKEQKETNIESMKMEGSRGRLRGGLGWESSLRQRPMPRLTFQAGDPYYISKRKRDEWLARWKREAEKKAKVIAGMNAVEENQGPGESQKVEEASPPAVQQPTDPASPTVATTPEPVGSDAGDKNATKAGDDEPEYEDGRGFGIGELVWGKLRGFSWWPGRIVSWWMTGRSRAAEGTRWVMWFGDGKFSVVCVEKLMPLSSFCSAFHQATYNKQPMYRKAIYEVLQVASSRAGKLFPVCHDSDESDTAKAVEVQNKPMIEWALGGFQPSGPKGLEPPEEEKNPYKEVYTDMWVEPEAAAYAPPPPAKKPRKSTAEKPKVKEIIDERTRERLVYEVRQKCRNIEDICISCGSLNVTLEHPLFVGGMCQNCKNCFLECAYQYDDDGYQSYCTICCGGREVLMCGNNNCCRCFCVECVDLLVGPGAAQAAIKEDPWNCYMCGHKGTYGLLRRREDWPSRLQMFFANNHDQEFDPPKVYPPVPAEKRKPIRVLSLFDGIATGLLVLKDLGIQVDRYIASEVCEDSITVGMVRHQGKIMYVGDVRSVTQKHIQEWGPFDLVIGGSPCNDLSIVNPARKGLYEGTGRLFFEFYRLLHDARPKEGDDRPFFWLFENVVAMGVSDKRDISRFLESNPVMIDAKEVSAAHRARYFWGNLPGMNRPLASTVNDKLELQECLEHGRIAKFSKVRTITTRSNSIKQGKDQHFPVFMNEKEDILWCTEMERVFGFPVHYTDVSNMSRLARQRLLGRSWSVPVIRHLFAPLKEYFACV

One may read the inhibition as how much of the control response was suppressed. Turning to `COc1ccc(Cl)cc1CNCCc1ccc(CCC(=O)O)cc1`, the inhibition result in data set [1] and in [2] was “inactive” in each case. The inhibition in [3] was less than 20%.
For `COc1ccc(Cl)cc1C(=O)NCCc1ccc(CCC(=O)O)cc1`, the inhibition result in data set [1], in [2], in data set [4], in data set [5] and in data set [6] was “inactive” in each case. Further, the inhibition in data set [3] amounted to 2.9%.
With `COc1ccc(Cl)cc1C(=O)NCCc1ccc(C(=O)O)cc1`, the inhibition entry in data set [1] and in data set [2] was “inactive” in each case. Moreover, the inhibition in [3] is less than 20%.
Take `COc1ccc(Cl)cc1C(=O)NCCc1ccc(CC(C)C(=O)O)cc1` (stereo not drawn): the inhibition entry in data set [1] and in data set [2] was “inactive” each time. In data set [3], this compound displayed an inhibition of less than 20%.
With `COc1ccc(Cl)cc1C(=O)NCCc1ccc(/C=C/C(=O)O)cc1`, the inhibition entry in [1] and in data set [2] was “inactive” each time. In data set [3], this compound came in with an inhibition of less than 20%.
For `COc1ccc(Cl)cc1C(=O)NCCc1ccc(CCCO)cc1`, the inhibition entry in data set [1] and in [2] was “inactive” each time. In [3], the inhibition was less than 20%.
Consider `COc1ccc(Cl)cc1C(=O)NCCc1ccccc1`, for which the inhibition entry in data set [1] and in data set [2] was “inactive” throughout. In addition, the inhibition in [3] is less than 20%.
For `CNC(=O)CCc1ccc(CCNC(=O)c2cc(Cl)ccc2OC)cc1`, the inhibition entry in data set [1] and in data set [2] was “inactive” throughout. In data set [3], this compound displayed an inhibition of less than 20%.
Take `O=C(O)CCc1ccc(CCNC(=O)c2cc(C(F)(F)F)ccc2Cl)cc1`: in the data set with MDA-MB-231 [7], the Activity result is recorded as “Toxic”. The inhibition entry in data set [1], in data set [2] and in data set [4] was “inactive” throughout. Moreover, the inhibition in [5] is more than 60%; in data set [3], less than 20%.
On to `COc1ccc(Cl)cc1C(=O)NCc1ccc(CCC(=O)O)cc1`, for which the inhibition result in data set [1] and in [2] was “inactive” each time. Also, the inhibition in data set [4] is more than 13%; in [5] it was more than 60%; in data set [3], less than 20%.
As for `COc1ccc(Cl)cc1C(=O)Nc1ccc(CCC(=O)O)cc1`, the inhibition entry in data set [1] and in data set [2] was “inactive” each time. The inhibition in data set [4] is more than 13%; in data set [5], more than 60%; in data set [3] it was less than 20%.
With `O=C(O)CCc1ccc(CCNC(=O)c2ccccc2Br)cc1`, the inhibition result in data set [1] and in data set [2] was “inactive” each time. In [3], this compound showed an inhibition of less than 20%.
Take `COc1ccc(Cl)cc1C(=O)NCCc1ccc(CCC(N)=O)cc1`: the inhibition entry in data set [1] and in data set [2] was “inactive” in each case. This compound returned an inhibition in [3] of less than 20%.
For orientation: EC50 means the concentration needed to bring the measured effect to its halfway point. Low values mean an effect from little substance, high ones a need for much substance. Take `COc1ccc(Cl)cc1C(=O)NCCc1ccc(O)cc1`: the Activity result in the data set with MDA-MB-231 [7] is “Toxic”. In addition, the inhibition result in [1] and in data set [2] was “inactive” in each case. This compound also displayed an EC50 in data set [8] of 36 µM. For the same compound, the inhibition in data set [4] is more than 13%; in [5] it was more than 60%; in [3] it was 16%.
In the case of `COc1ccc(Cl)cc1C(=O)N(C)CCc1ccc(CCC(=O)O)cc1`, the inhibition result in data set [1] and in [2] was “inactive” each time. In addition, in data set [3], the inhibition is less than 20%.
Consider `CCc1ccc(CCNC(=O)c2cc(Cl)ccc2OC)cc1`, for which the inhibition result in data set [1] and in data set [2] was “inactive” each time. Also, the inhibition in data set [3] was less than 20%.
Regarding `COc1ccc(Cl)cc1C(=O)NCCc1ccc(OCC(=O)O)cc1`, the inhibition result (in the data set on MDA-MB-231 [9]; with MDA-MB-231 [10]; in data set [1]; in data set [2]) was “inactive” throughout. Besides, the Activity entry in the data set with MDA-MB-231 [7] is reported as “Non-toxic”. The values for the inhibition in data set [4], in [5] and in data set [3] were more than 13%, more than 60% and 15%, respectively.
For the compound `O=C(O)CCc1ccc(CCNC(=O)c2ccc([N+](=O)[O-])cc2)cc1`, in the data set with MDA-MB-231 [7], the Activity result is “Toxic”. Also, the inhibition entry in data set [1] and in [2] was “inactive” each time. Further, the inhibition is more than 13% in data set [4], more than 60% in data set [5] and 14% in data set [3].
For the compound `Nc1ncn([C@@H]2O[C@H](CO)[C@@H](O)[C@H]2O)c(=O)n1`, the inhibition result with MDA-MB-231 [11] was “Active”.
`COc1ccc(Cl)cc1C(=O)NCCc1ccc(CCC(=O)N2CCOCC2)cc1`: the inhibition entry in data set [1] and in data set [2] was “inactive” throughout. In data set [3], this compound displayed an inhibition of less than 20%.
Take `O=C(O)CCc1ccc(CCNC(=O)c2cc(Cl)ccc2F)cc1`: the inhibition result in data set [1] and in data set [2] was “inactive” in each case. In [3], this compound displayed an inhibition of less than 20%.
Regarding `COc1ccc(Cl)cc1NC(=O)CCc1ccc(CCC(=O)O)cc1`, the inhibition result in [1] and in data set [2] was “inactive” throughout. Moreover, the inhibition in data set [3] is less than 20%.
Turning to `COc1ccc(Cl)cc1C(=O)NCCc1ccc(CC(=O)O)cc1`, the inhibition entry in data set [1] and in data set [2] was “inactive” in each case. In data set [3], the inhibition was less than 20%.
As to `COc1ccc(Cl)cc1C(=O)N[C@@H](Cc1ccc(OCC(=O)O)cc1)C(=O)O`, in the data set with MDA-MB-231 [9], the inhibition result was “Active”. The inhibition result (with MDA-MB-231 [10]; in data set [1]; in [2]) was “inactive” each time. Further, the Activity result with MDA-MB-231 [7] is “Non-toxic”. In addition, the inhibition is more than 13% in data set [4], more than 60% in data set [5] and less than 20% in data set [3].
As to `COc1cccc(C(=O)NCCc2ccc(CCC(=O)O)cc2)c1`, the inhibition result in [1] and in data set [2] was “inactive” each time. Also, the inhibition in [3] was less than 20%.
Consider `O=C(O)CCc1ccc(CCNC(=O)c2cccc(Cl)c2)cc1`, for which the inhibition result in data set [1] and in [2] was “inactive” throughout. The compound further showed an inhibition in data set [3] of less than 20%.
With `O=C(O)CCc1ccc(CCNC(=O)c2cccnc2)cc1`, the inhibition entry in data set [1] and in [2] was “inactive” throughout. The compound also had an inhibition in [3] of less than 20%.
As for `COc1ccc(Cl)cc1C(=O)NCCc1cccc(CCC(=O)O)c1`, the inhibition entry in [1] and in [2] was “inactive” throughout. For the same compound, the inhibition in [3] is less than 20%.
Take `O=C(O)CCc1ccc(CCNC(=O)c2ccccc2F)cc1`: the inhibition result in data set [1] and in [2] was “inactive” each time. The inhibition in [3] was less than 20%.
Consider `COc1ccc(Cl)cc1C(=O)NCCc1ccc(C(C)CC(=O)O)cc1` (stereo not drawn), for which the inhibition entry in [1] and in [2] was “inactive” throughout. The same compound showed an inhibition in data set [3] of less than 20%.
Regarding `COc1ccc(Cl)cc1C(=O)NCCc1ccc(CCC(=O)N(C)C)cc1`, the inhibition entry in [1] and in [2] was “inactive” in each case. The compound further registered an inhibition in data set [3] of less than 20%.

(Values after ChEMBL document CHEMBL3132825, “Preparation of phenylethylbenzamide derivatives as modulators of DNMT3 activity” (Medchemcomm, 2013).)
